IC50 data for 24 compounds are collected here from US20240239804A1, “FUROINDAZOLE DERIVATIVES AS ANTAGONISTS OR INHIBITORS OF GPR84” (Bayer Aktiengesellschaft, priority 2021, published 2024).

The test deals with T1, human GPR84 receptor (Homo sapiens, UniProt Q9NQS5).
T1 construct: frozen aliquots prepared by acCELLerate; host or cells: CHO-K1
The test is described as follows: cAMP HTRF assay for identification of cellular GPR84 antagonists. The class given is cell-based. Conditions: CHO-K1 cells stably expressing human GPR84; Forskolin plus agonist 6-OAU; cAMP HTRF readout; average or median values. An excerpt:
cAMP HTRF® Assay for Identification of Cellular GPR84 Antagonists
By using a Homogenous Time-Resolved Fluorescence (HTRF®) based assay (#62AM5PEJ, Cisbio, Condolet, France) the inhibition of the Gi-coupled GPR84 receptor can be detected. CHO-K1 cells stably expressing human GPR84 receptor (purchased from DiscoveRx, now Eurofins) were used and treated with Forskolin (F6886, Sigma, Germany) to stimulate membrane adenylyl cyclases and thereby unspecific cAMP formation. Activation of the Gi-coupled GPR84 by a natural or small molecule agonist (e.g. 6-n-octyl aminouracile, inhouse) results in inhibition of cellular cAMP formation which can be released again by antagonists to this receptor. Detection and quantification of cellular cAMP levels in this HTRF assay is achieved by interaction between a fluorescent cAMP tracer (cAMP-d2) and an Eu-cryptate labelled anti-cAMP antibody. Following excitation at 337 nm this pairing allows for the generation of a fluorescence resonance energy transfer (FRET) between the partners and results in FRET induced emissions at 665 nm and 620 nm, the latter representing background signal by Eu-cryptate labelled anti-cAMP antibody. Maximal signal is obtained in the absence of any cellular cAMP (no competition for the binding of the tracer to the antibody). Given the combination of the Gi coupling properties of GPR84 and the competitive nature of the detection system agonist treatment should result in an increase in the HTRF signal due to lowered cAMP levels. Any signal decrease in the presence of Forskolin, agonist and compound are indicative of antagonist mediated abrogation of GPR84 signalling.
For the assay, frozen aliquots of CHO-K1 cells expressing hGPR84 (prepared by acCELLerate, Hamburg, Germany) were thawed and a cell suspension (1.67E+06 cells/mL) in assay media (Ham's F12 Nutrient Mix, Thermo Fisher Scientific, Waltham, USA; 5% fetal calf serum, Biomol, Hamburg, Germany) containing cAMP-d2 (dilution 1:20, supplied with the kit #62AM5PEJ, Cisbio, Condolet, France) was prepared. After recovery of cells for 20 minutes at 37° C., 3 μL/well cell suspension including cAMP-d2 were added to a pre-dispensed assay plate (Greiner Bio-One, Kremsmuenster, Austria) containing 50 nl/well test compound in 100% DMSO or 100% DMSO as control. This was followed by a 30 minute incubation step at room temperature. The stimulation time was started by addition of 2 μL/well assay media containing 2.5×EC80 agonist 6-OAU and 2.5×EC90 Forskolin (negative control: 2.5×EC90 Forskolin in assay media) and was continued for 30 minutes at room temperature. The reaction was stopped by addition of 3 μL/well lysis buffer containing cAMP Eu-Cryptate antibody (dilution 1:20) (both supplied with the kit #62AM5PEJ, Cisbio, Condolet, France). To enable complete lysis, plates were incubated for 60 minutes at room temperature before measurement in an HTRF reader, e.g. a PHERAstar (BMG Labtech, Ortenberg, Germany).
From the fluorescence emissions at 665 nm (FRET) and at 620 nm (background signal of Eu-cryptate) the ratio (emission at 665 nm divided by emission at 620 nm×10000) was calculated and the data were normalized (reaction without test compound, only 100% DMSO=0% inhibition; all other assay components except agonist=100% inhibition). For dose response testing on the same microtiter plate, compounds were tested at 11 different concentrations in the range of 20 μM to 0.07 nM (20 μM, 5.7 μM, 1.6 μM, 0.47 μM, 0.13 μM, 38 nM, 11 nM, 3.1 nM, 0.89 nM, 0.25 and 0.07 nM; dilution series prepared before the assay at the level of the 100-fold conc. stock solutions by serial 1:3.5 dilutions in 100% DMSO) in duplicate values for each concentration. IC50 values were calculated by 4-parameter fitting using a commercial software package (Genedata Screener, Basel, Switzerland).
Examples were tested in selected biological assays one or more times. […]

T1 sequence (Q9NQS5 whole entry): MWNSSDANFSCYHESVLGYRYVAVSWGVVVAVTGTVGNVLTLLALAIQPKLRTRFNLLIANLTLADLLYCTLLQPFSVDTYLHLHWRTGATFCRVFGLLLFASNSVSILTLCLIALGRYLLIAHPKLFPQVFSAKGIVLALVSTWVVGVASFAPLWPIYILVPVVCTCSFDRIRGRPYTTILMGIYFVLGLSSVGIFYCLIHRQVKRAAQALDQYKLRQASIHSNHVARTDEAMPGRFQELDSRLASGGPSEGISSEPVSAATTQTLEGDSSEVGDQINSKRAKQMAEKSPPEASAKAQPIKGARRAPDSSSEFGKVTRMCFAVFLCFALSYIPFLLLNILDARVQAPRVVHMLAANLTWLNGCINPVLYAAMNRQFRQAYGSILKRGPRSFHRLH

As to `Cc1c(C(=O)NCc2cc[nH]n2)oc2c1-c1nn(Cc3ccc(Cl)cc3)cc1CC2` [Example 41, 2-[(4-chlorophenyl)methyl]-8-methyl-N-[(1H-pyrazol-3-yl)methyl]-4,5-dihydro-2H-furo[2,3-g]indazole-7-carboxamide], the IC50 worked out at 0.52 µM.
In the case of `Cc1c(C(=O)NCc2ccc(C(N)=O)cc2)oc2c1-c1nn(Cc3ccc(Cl)cc3)cc1CC2` [Example 42, N-[(4-carbamoylphenyl)methyl]-2-[(4-chlorophenyl)methyl]-8-methyl-4,5-dihydro-2H-furo[2,3-g]indazole-7-carboxamide], the IC50 was determined as 0.72 µM.
Take `CC(=O)Nc1ccc(CNC(=O)c2oc3c(c2C)-c2nn(Cc4ccc(Cl)cc4)cc2CC3)cc1` [Example 43, N-[(4-acetamidophenyl)methyl]-2-[(4-chlorophenyl)methyl]-8-methyl-4,5-dihydro-2H-furo[2,3-g]indazole-7-carboxamide]: the IC50 worked out at 0.8 µM.
For `Cc1c(C(=O)NCc2cccn2C)oc2c1-c1nn(Cc3ccc(Cl)cc3)cc1CC2` [Example 44, 2-[(4-chlorophenyl)methyl]-8-methyl-N-[(1-methyl-1H-pyrrol-2-yl)methyl]-4,5-dihydro-2H-furo[2,3-g]indazole-7-carboxamide], the IC50 was determined as 0.89 µM.
For `Cc1c(C(=O)NCc2ccncc2)oc2c1-c1nn(Cc3ccc(Cl)cc3)cc1CC2` [Example 45, 2-[(4-chlorophenyl)methyl]-8-methyl-N-[(pyridin-4-yl)methyl]-4,5-dihydro-2H-furo[2,3-g]indazole-7-carboxamide], the IC50 stood at 1.43 µM.
For the compound `Cc1c(C(=O)NCc2ccnn2C)oc2c1-c1nn(Cc3ccc(Cl)cc3)cc1CC2` [Example 46, 2-[(4-chlorophenyl)methyl]-8-methyl-N-[(1-methyl-1H-pyrazol-5-yl)methyl]-4,5-dihydro-2H-furo[2,3-g]indazole-7-carboxamide], the concentration for half-maximal inhibition (IC50) amounted to 1.65 µM.
The value for `Cc1c(C(=O)NCc2cnn(C)c2)oc2c1-c1nn(Cc3ccc(Cl)cc3)cc1CC2` [Example 47, 2-[(4-chlorophenyl)methyl]-8-methyl-N-[(1-methyl-1H-pyrazol-4-yl)methyl]-4,5-dihydro-2H-furo[2,3-g]indazole-7-carboxamide] was 1.87 µM; that for `Cc1c(C(=O)NCC(N)=O)oc2c1-c1nn(Cc3ccc(Cl)cc3)cc1CC2` [Example 48, N-(2-amino-2-oxoethyl)-2-[(4-chlorophenyl)methyl]-8-methyl-4,5-dihydro-2H-furo[2,3-g]indazole-7-carboxamide] was 2.13 µM; that for `Cc1c(C(=O)N2CC(Cc3ccccc3)C2)oc2c1-c1nn(Cc3ccc(Cl)cc3)cc1CC2` [Example 49, (3-benzylazetidin-1-yl){2-[(4-chlorophenyl)methyl]-8-methyl-4,5-dihydro-2H-furo[2,3-g]indazol-7-yl}methanone] was 2.59 µM.
Turning to `Cc1c(C(=O)NCc2cnn3ccccc23)oc2c1-c1nn(Cc3ccc(Cl)cc3)cc1CC2` [Example 50, 2-[(4-chlorophenyl)methyl]-8-methyl-N-[(pyrazolo[1,5-a]pyridin-3-yl)methyl]-4,5-dihydro-2H-furo[2,3-g]indazole-7-carboxamide], the IC50 turned out to be 2.69 µM.
Consider `Cc1c(C(=O)NCC2CC2)oc2c1-c1nn(Cc3ccc(Cl)cc3)cc1CC2` [Example 51, 2-[(4-chlorophenyl)methyl]-N-(cyclopropylmethyl)-8-methyl-4,5-dihydro-2H-furo[2,3-g]indazole-7-carboxamide], for which the IC50 came to 2.72 µM.
With `Cc1c(C(=O)NCC2CCOCC2)oc2c1-c1nn(Cc3ccc(Cl)cc3)cc1CC2` [Example 52, 2-[(4-chlorophenyl)methyl]-8-methyl-N-[(oxan-4-yl)methyl]-4,5-dihydro-2H-furo[2,3-g]indazole-7-carboxamide], the IC50 is 2.96 µM.
Turning to `Cc1c(C(=O)NCc2nccn2C)oc2c1-c1nn(Cc3ccc(Cl)cc3)cc1CC2` [Example 53, 2-[(4-chlorophenyl)methyl]-8-methyl-N-[(1-methyl-1H-imidazol-2-yl)methyl]-4,5-dihydro-2H-furo[2,3-g]indazole-7-carboxamide], the IC50 was found to be 3.04 µM.
Turning to `Cc1c(C(=O)NCc2cncn2C)oc2c1-c1nn(Cc3ccc(Cl)cc3)cc1CC2` [Example 54, 2-[(4-chlorophenyl)methyl]-8-methyl-N-[(1-methyl-1H-imidazol-5-yl)methyl]-4,5-dihydro-2H-furo[2,3-g]indazole-7-carboxamide], the concentration for half-maximal inhibition (IC50) was determined as 3.39 µM.
For `Cc1c(C(=O)NCCN2CCOCC2)oc2c1-c1nn(Cc3ccc(Cl)cc3)cc1CC2` [Example 55, 2-[(4-chlorophenyl)methyl]-8-methyl-N-[2-(morpholin-4-yl)ethyl]-4,5-dihydro-2H-furo[2,3-g]indazole-7-carboxamide], the IC50 is 4.18 µM.
Turning to `Cc1c(C(=O)NCCC(N)=O)oc2c1-c1nn(Cc3ccc(Cl)cc3)cc1CC2` [Example 56, N-(3-amino-3-oxopropyl)-2-[(4-chlorophenyl)methyl]-8-methyl-4,5-dihydro-2H-furo[2,3-g]indazole-7-carboxamide], the IC50 came to 4.88 µM.
For the compound `Cc1c(C(=O)NCCc2ccccc2)oc2c1-c1nn(Cc3ccc(Cl)cc3)cc1CC2` [Example 57, 2-[(4-chlorophenyl)methyl]-8-methyl-N-(2-phenylethyl)-4,5-dihydro-2H-furo[2,3-g]indazole-7-carboxamide], the IC50 was 5.04 µM.
As to `Cc1c(C(=O)NCCO)oc2c1-c1nn(Cc3ccc(Cl)cc3)cc1CC2` [Example 58, 2-[(4-chlorophenyl)methyl]-N-(2-hydroxyethyl)-8-methyl-4,5-dihydro-2H-furo[2,3-g]indazole-7-carboxamide], the IC50 stood at 5.22 µM.
As for `Cc1c(C(=O)NCC2CCS(=O)(=O)C2)oc2c1-c1nn(Cc3ccc(Cl)cc3)cc1CC2` (stereo not drawn) [Example 59, 2-(4-chlorobenzyl)-N-[(1,1-dioxidotetrahydrothiophen-3-yl)methyl]-8-methyl-4,5-dihydro-2H-furo[2,3-g]indazole-7-carboxamide], the IC50 came out at 5.28 µM.
On to `Cc1c(C(=O)NCC(C)(C)O)oc2c1-c1nn(Cc3ccc(Cl)cc3)cc1CC2` [Example 60, 2-[(4-chlorophenyl)methyl]-N-(2-hydroxy-2-methylpropyl)-8-methyl-4,5-dihydro-2H-furo[2,3-g]indazole-7-carboxamide], for which the IC50 turned out to be 5.64 µM.
In the case of `Cc1c(C(=O)N2CCc3ccccc3C2)oc2c1-c1nn(Cc3ccc(Cl)cc3)cc1CC2` [Example 61, {2-[(4-chlorophenyl)methyl]-8-methyl-4,5-dihydro-2H-furo[2,3-g]indazol-7-yl}(3,4-dihydroisoquinolin-2(1H)-yl)methanone], the IC50 was 6.02 µM.
With `CC(=O)N1CCN(C(=O)c2oc3c(c2C)-c2nn(Cc4ccc(Cl)cc4)cc2CC3)CC1` [Example 62, 1-(4-{2-[(4-chlorophenyl)methyl]-8-methyl-4,5-dihydro-2H-furo[2,3-g]indazole-7-carbonyl}piperazin-1-yl)ethan-1-one], the IC50 came to 6.1 µM.
Then `Cc1c(C(=O)NCC[S+](C)[O-])oc2c1-c1nn(Cc3ccc(Cl)cc3)cc1CC2` (stereo not drawn) [Example 63, 2-[(4-chlorophenyl)methyl]-NV-[2-(methanesulfinyl)ethyl]-8-methyl-4,5-dihydro-2H-furo[2,3-g]indazole-7-carboxamide], with 6.15 µM; and `Cc1c(C(=O)NCCCO)oc2c1-c1nn(Cc3ccc(Cl)cc3)cc1CC2` [Example 64, 2-[(4-chlorophenyl)methyl]-N-(3-hydroxypropyl)-8-methyl-4,5-dihydro-2H-furo[2,3-g]indazole-7-carboxamide], with 6.68 µM.
